Test results from ChEMBL document CHEMBL5131484, “Design and synthesis of adamantane-1-carbonyl thiourea derivatives as potent and selective inhibitors of h-P2X4 and h-P2X7 receptors: An Emerging therapeutic tool for treatment of inflammation and neurological disorders” (Eur J Med Chem, 2022).

How the values were obtained:
P2X purinoceptor 5 [1] = target: T1, P2X purinoceptor 5 (Homo sapiens, UniProt Q93086); experiment: Antagonist activity at human P2X5 receptor expressed in human 1321N1 cells assessed as reduction in intracellular Ca2+ influx incubated for 30 mins by Fura-2 AM based fluorescence assay; format: cell-based
T1 sequence (Q93086 whole entry): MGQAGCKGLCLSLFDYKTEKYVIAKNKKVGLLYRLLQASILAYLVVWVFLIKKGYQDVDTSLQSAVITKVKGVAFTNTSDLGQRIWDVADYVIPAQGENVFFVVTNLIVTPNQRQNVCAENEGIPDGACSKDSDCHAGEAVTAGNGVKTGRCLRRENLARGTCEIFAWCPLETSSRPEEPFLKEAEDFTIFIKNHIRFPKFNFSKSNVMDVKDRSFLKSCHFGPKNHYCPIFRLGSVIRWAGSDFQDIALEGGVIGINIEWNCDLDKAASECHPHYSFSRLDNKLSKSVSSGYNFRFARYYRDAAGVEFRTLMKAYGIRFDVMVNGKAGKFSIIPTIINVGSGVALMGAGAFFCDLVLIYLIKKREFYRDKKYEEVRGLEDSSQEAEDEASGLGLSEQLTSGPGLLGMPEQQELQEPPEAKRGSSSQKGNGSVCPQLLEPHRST

HeLa = experiment: Cytotoxicity against human HeLa cells assessed as reduction in cell viability at 50 uM incubated for 24 hrs by MTT assay relative to control; format: functional
[2] = Cytotoxicity against human HEK293 cells assessed as reduction in cell viability at 50 uM incubated for 24 hrs by MTT assay relative to control; format: toxicity, cell-based; conditions: read-out: INH
[3] = Cytotoxicity against human 1321N1 cells assessed as reduction in cell viability at 50 uM incubated for 24 hrs by MTT assay relative to control; format: functional
[4] = target: T2, P2X purinoceptor 7 (Homo sapiens) (UniProt Q99572); experiment: Antagonist activity at human P2X7 receptor expressed in human 1321N1 cells assessed as reduction in intracellular Ca2+ influx incubated for 30 mins by Fura-2 AM based fluorescence assay relative to control; format: cell-based
T2 sequence (whole entry): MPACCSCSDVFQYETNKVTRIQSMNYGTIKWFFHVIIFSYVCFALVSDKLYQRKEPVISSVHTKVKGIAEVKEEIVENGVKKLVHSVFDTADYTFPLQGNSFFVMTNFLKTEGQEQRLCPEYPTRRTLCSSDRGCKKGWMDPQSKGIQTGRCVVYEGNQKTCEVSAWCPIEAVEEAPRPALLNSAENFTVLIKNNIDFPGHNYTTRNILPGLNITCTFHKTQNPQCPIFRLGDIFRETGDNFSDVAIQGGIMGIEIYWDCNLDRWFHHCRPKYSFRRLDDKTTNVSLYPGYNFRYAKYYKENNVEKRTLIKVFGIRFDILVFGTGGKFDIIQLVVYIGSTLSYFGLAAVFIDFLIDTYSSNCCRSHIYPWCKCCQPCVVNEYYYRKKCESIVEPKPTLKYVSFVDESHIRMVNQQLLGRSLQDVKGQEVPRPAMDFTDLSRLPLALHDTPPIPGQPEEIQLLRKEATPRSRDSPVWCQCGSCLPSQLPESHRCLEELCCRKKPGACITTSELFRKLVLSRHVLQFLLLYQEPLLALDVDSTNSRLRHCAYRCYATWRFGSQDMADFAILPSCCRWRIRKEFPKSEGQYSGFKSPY

[5] = target: T3, P2X purinoceptor 4 (Homo sapiens) (UniProt Q99571); experiment: Antagonist activity at human P2X4 receptor expressed in human 1321N1 cells assessed as reduction in intracellular Ca2+ influx incubated for 30 mins by Fura-2 AM based fluorescence assay relative to control; format: cell-based
T3 sequence (whole entry): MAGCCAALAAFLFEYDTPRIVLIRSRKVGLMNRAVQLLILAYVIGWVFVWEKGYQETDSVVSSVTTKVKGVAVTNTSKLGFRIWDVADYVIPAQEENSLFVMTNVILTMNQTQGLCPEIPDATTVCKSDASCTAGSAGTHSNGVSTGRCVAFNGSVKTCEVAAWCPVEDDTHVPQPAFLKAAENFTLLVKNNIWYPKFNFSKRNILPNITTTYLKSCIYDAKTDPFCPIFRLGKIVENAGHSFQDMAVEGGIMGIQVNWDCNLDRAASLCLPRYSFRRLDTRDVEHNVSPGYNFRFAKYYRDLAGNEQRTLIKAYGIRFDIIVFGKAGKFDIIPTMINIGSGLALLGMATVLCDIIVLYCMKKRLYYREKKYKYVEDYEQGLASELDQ

P2X purinoceptor 5 [6] = target: T1, P2X purinoceptor 5; experiment: Antagonist activity at human P2X5 receptor expressed in human 1321N1 cells assessed as reduction in intracellular Ca2+ influx incubated for 30 mins by Fura-2 AM based fluorescence assay relative to control; format: cell-based
[7] = target: T4, P2X purinoceptor 2 (Homo sapiens) (UniProt Q9UBL9); experiment: Antagonist activity at human P2X2 receptor expressed in human 1321N1 cells assessed as reduction in intracellular Ca2+ influx incubated for 30 mins by Fura-2 AM based fluorescence assay relative to control; format: cell-based
T4 sequence (whole entry): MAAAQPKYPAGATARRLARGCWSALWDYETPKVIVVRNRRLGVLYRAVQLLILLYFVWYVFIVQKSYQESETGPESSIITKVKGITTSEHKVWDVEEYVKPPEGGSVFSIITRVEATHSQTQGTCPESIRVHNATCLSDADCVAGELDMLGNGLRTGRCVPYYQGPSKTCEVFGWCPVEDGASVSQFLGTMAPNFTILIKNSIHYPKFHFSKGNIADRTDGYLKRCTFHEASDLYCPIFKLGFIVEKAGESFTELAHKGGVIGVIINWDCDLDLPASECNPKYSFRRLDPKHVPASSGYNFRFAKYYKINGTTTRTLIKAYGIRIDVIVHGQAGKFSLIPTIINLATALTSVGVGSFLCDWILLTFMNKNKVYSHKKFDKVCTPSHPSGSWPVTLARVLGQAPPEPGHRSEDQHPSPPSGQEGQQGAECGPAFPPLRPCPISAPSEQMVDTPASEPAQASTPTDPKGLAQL

P2X purinoceptor 4 = target: T5, P2X purinoceptor 4 (Homo sapiens, UniProt Q99571); experiment: Antagonist activity at human P2X4 receptor expressed in human 1321N1 cells assessed as reduction in intracellular Ca2+ influx incubated for 30 mins by Fura-2 AM based fluorescence assay; format: cell-based
T5 sequence (Q99571 whole entry): T3 sequence (whole entry)

## COc1ccc(NC(=S)NC(=O)C23CC4CC(CC(C4)C2)C3)cc1OC
P2X purinoceptor 5 [1]
  IC50: 16.5 µM
HeLa
  inhibition at 50 µM: 14.3%
[2]
  cytotoxicity at 24 h, 50 µM: 7.2%
[3]
  inhibition at 50 µM: 13.5%

## COc1cccc(NC(=S)NC(=O)C23CC4CC(CC(C4)C2)C3)c1
[4]
  inhibition: 15%
[5]
  inhibition: 38%
HeLa
  inhibition at 50 µM: 7.21%
[2]
  cytotoxicity at 24 h, 50 µM: 13.2%
P2X purinoceptor 5 [6]; filed as antagonist
  inhibition: 45%
[3]
  inhibition at 50 µM: 6.53%

## Cc1ccc(NC(=S)NC(=O)C23CC4CC(CC(C4)C2)C3)c(Br)c1
P2X purinoceptor 5 [1]
  IC50: 9.04 µM
HeLa
  inhibition at 50 µM: 15.4%
[2]
  cytotoxicity at 24 h, 50 µM: 9.46%
[3]
  inhibition at 50 µM: 7.29%

## O=C(NC(=S)Nc1ccccc1O)C12CC3CC(CC(C3)C1)C2
HeLa
  inhibition at 50 µM: 8.6%
[2]
  cytotoxicity at 24 h, 50 µM: 4.22%
[7]
  inhibition: 33%
P2X purinoceptor 5 [6]; filed as antagonist
  inhibition: 41%
[3]
  inhibition at 50 µM: 10.3%

## O=C(NC(=S)Nc1cccc(O)c1)C12CC3CC(CC(C3)C1)C2
[4]
  inhibition: 19%
[5]
  inhibition: 36%
HeLa
  inhibition at 50 µM: 11%
[2]
  cytotoxicity at 24 h, 50 µM: 6.95%
[7]
  inhibition: 33%
P2X purinoceptor 5 [6]; filed as antagonist
  inhibition: 44%
[3]
  inhibition at 50 µM: 5.67%

## O=C(NC(=S)Nc1cc(Br)ccc1Br)C12CC3CC(CC(C3)C1)C2
[4]
  inhibition: 11%
P2X purinoceptor 4
  IC50: 8.34 µM
HeLa
  inhibition at 50 µM: 4.15%
[2]
  cytotoxicity at 24 h, 50 µM: 10.7%
[7]; filed as antagonist
  inhibition: 41%
P2X purinoceptor 5 [6]
  inhibition: 16%
[3]
  inhibition at 50 µM: 7.43%

## O=C(NC(=S)Nc1ccc(Br)cc1)C12CC3CC(CC(C3)C1)C2
[5]
  inhibition: 21%
HeLa
  inhibition at 50 µM: 7.19%
[2]
  cytotoxicity at 24 h, 50 µM: 13.7%
[7]
  inhibition: 35%
P2X purinoceptor 5 [6]; filed as antagonist
  inhibition: 42%
[3]
  inhibition at 50 µM: 5.4%

## O=C(NC(=S)Nc1cc([N+](=O)[O-])ccc1Cl)C12CC3CC(CC(C3)C1)C2
HeLa
  inhibition at 50 µM: 8.66%
[2]
  cytotoxicity at 24 h, 50 µM: 6.31%
P2X purinoceptor 5 [6]
  inhibition: 32%
[3]
  inhibition at 50 µM: 10.4%

## O=C(O)C12CC3CC(CC(C3)C1)C2
[4]
  inhibition: 11%
[5]
  inhibition: 20%
[7]
  inhibition: 12%
P2X purinoceptor 5 [6]
  inhibition: 15%

## COc1ccc(NC(=S)NC(=O)C23CC4CC(CC(C4)C2)C3)cc1
[4]
  inhibition: 0%
[5]
  inhibition: 32%
HeLa
  inhibition at 50 µM: 8.01%
[2]
  cytotoxicity at 24 h, 50 µM: 10.6%
P2X purinoceptor 5 [6]
  inhibition: 25%
[3]
  inhibition at 50 µM: 4.56%

## Cc1cc(Br)ccc1NC(=S)NC(=O)C12CC3CC(CC(C3)C1)C2
[4]
  inhibition: 18%
[5]
  inhibition: 35%
HeLa
  inhibition at 50 µM: 4.1%
[2]
  cytotoxicity at 24 h, 50 µM: 7.02%
[7]
  inhibition: 22%
P2X purinoceptor 5 [6]
  inhibition: 16%
[3]
  inhibition at 50 µM: 2.2%

## CC(C)c1cc(Br)c(NC(=O)Nc2cccnc2)c(Br)c1
HeLa
  inhibition at 50 µM: 9.12%
[2]
  cytotoxicity at 24 h, 50 µM: 2.85%
[3]
  inhibition at 50 µM: 20.2%

## Cc1ccc(C(=O)Nc2ccc(S(=O)(=O)O)c3cc(S(=O)(=O)O)cc(S(=O)(=O)O)c23)cc1NC(=O)c1cccc(NC(=O)Nc2cccc(C(=O)Nc3cc(C(=O)Nc4ccc(S(=O)(=O)O)c5cc(S(=O)(=O)O)cc(S(=O)(=O)O)c45)ccc3C)c2)c1 [SURAMIN]
HeLa
  inhibition at 50 µM: 28.7%
[2]
  cytotoxicity at 24 h, 50 µM: 48%
[3]
  inhibition at 50 µM: 30.6%

## O=C(NC(=S)Nc1cc(Cl)c(O)c(Cl)c1)C12CC3CC(CC(C3)C1)C2
P2X purinoceptor 5 [1]
  IC50: 12.3 µM
HeLa
  inhibition at 50 µM: 5.4%
[2]
  cytotoxicity at 24 h, 50 µM: 1.06%
[3]
  inhibition at 50 µM: 6.18%

## CN(C)CCCNC(=S)NC(=O)C12CC3CC(CC(C3)C1)C2
[4]
  inhibition: 10%
[5]
  inhibition: 0%
HeLa
  inhibition at 50 µM: 7.21%
[2]
  cytotoxicity at 24 h, 50 µM: 10.4%
[7]
  inhibition: 2%
P2X purinoceptor 5 [6]
  inhibition: 5%
[3]
  inhibition at 50 µM: 5.45%
